# In US12396996B2, “Compounds, pharmaceutical compositions, and methods of their use in reversing cancer chemoresistance” (priority 2019, dated 2025):
# Test system: HMLE-SNAIL spheroids
# Assay: 3-D tumor spheroid assay (Sytox/DAPI staining)
# Type: cell-based, human
# Conditions: Sytox staining
# Excerpt: FIGS. 1F-1I show the results of a 3-D tumor spheroid assay formed by the chemotherapy-resistant breast cancer cell line, HMLE-SNAIL. […] Tumor spheroids are a model of real in vivo tumors, as they form a 3-D cell mass in which the hypoxic and often nutrient depleted microenvironment at the center of the tumor is enriched with mesenchymal, chemotherapy-resistant TIC cells. […] By staining spheroids with Sytox, which stains dead cells green, and DAPI, which stains the nuclei of all cells (living or dead), total fraction of dead cells is calculated. Also, the location of dead cells within the sphere is visualized with Sytox (green) staining. The results of FIGS. 1F-1I indicate that chaetocin a selective and potent killer of inner cells of the spheroids, enriched with mesenchymal, chemotherapy-resistant TIC cells, compared to other compounds tested. FIGS. 1J-1K show the results of a tumorsphere assay performed with TICs grown on serum-free, non-adherent culture conditions. […] The results of FIGS. 1J-1K indicate that chaetocin is effective in eliminating TICs in a dose dependent-manner.
# To determine whether chaetocin affects TIC death in a tumor-like environment, 3-D tumor spheroid assays were performed in the presence or absence of chaetocin. Tumor spheroids are a model of a real tumor, as they form a 3-D cell mass similar to tumors in vivo. The local microenvironment of a spheroid recapitulates many of the in vivo properties of tumor. Importantly, the hypoxic and often nutrient depleted microenvironment at the center of the tumor is favorable for converting epithelial, non-TIC, chemotherapy-sensitive cancer cells into mesenchymal, TIC-rich, chemotherapy-resistant cells. […] Pharmacological agents were added and cell viability was calculated by staining cells with Sytox, which stains dead cells green, and DAPI, which stains the nuclei of all cells (living or dead). to provide the total cell number. Using this method, the total fraction of dead cells was calculated and compared between different drug conditions. More importantly, the location of dead cells within the sphere is visualized with Sytox (green) staining. FIGS. 1G-1I show fluorescence images of tumor spheroids under control conditions (no treatment; FIG. 1G), under treatment with various experimental chemotherapeutic agents (Y-27632, LY-450139, and IWP-L6 (Wnt); FIG. 1H), and with chaetocin treatment (FIG. 1I). […] This family of kinases are thought to be important for survival of TIC cells. IWP-L6 is an inhibitor of Wnt pathway—a pathway important for TIC cell survival and formation. LY-450139 is a NOTCH pathway inhibitor. NOTCH is also important for TIC cell viability and survival. […]
row,Structure (SMILES),location of dead cells within spheroid
1,O=C(CSc1nc2c(c(=O)n1-c1ccccc1)SCC2)Nc1ccc(-c2ccccc2)cn1 [IWP-L6],mostly result in death of cells on the exterior of the spheroid
2,CC(C)[C@H](O)C(=O)N[C@@H](C)C(=O)N[C@@H]1C(=O)N(C)CCc2ccccc21 [LY-450139],mostly result in death of cells on the exterior of the spheroid
3,C[C@@H](N)[C@H]1CC[C@H](C(=O)Nc2ccncc2)CC1 [Y-27632],mostly result in death of cells on the exterior of the spheroid
